How the values were obtained:
[1] = biological target: T1, malonyl-CoA decarboxylase prepared from rat heart (Rattus norvegicus, UniProt Q920F5); test: In vitro MCD inhibitory assay (spectrophotometric, 96 well); assay type: biochemical; conditions: read-out: IC50 of the MCD inhibitors
T1 construct: malonyl-CoA decarboxylase prepared from rat heart; from tissue; host or cells: rat heart
T1 sequence (Q920F5 39-492): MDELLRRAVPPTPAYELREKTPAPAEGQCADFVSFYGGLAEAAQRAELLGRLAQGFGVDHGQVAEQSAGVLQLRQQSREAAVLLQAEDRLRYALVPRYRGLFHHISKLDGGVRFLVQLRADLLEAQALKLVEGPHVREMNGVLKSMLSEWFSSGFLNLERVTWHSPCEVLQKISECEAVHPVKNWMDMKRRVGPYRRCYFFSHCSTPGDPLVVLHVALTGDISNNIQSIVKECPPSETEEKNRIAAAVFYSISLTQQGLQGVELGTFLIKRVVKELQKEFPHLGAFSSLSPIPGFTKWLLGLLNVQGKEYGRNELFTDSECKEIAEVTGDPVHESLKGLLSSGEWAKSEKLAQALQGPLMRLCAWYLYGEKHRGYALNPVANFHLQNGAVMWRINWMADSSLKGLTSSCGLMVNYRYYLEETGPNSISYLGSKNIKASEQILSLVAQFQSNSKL
Description: The following reagents are added into a 96 well titer plate: Tris-HCl buffer, 20 μL; DTE, 10 μL; l-malate, 20 μL; NAD, 10 μL; NADH, 25 μL; water, 80 μL; malic dehydrogenase, 5 μL. The contents are mixed and incubated for 2 min followed by the addition of 5 μL of citrate synthase. […] The content is incubated and absorbence at […] is measured.
Active compounds are characterized by the concentration of the compound that caused 50% inhibition of MCD activity (IC50).

[2] = test system: isolated working hearts from male Sprague-Dawley rats; test: Glucose oxidation and fatty acid oxidation measurement in the perfused rat heart; conditions: isolated perfused rat heart assay; versus ranolazine or trimetazidine
Description: Isolated working hearts from male Sprague-Dawley rats are subjected to a 60-minute aerobic perfusion period with a modified Krebs-Henseleit solution containing 5 mmol/L glucose; 100 μU/mL insulin; 3% BAS; and 1.2 mmol/L palmitate. Working hearts are used in these studies to approximate the metabolic demand of the heart seen in vivo. (Kantor et al., Circulation Research 86:580-588 (2000)). The test compound is added 5 minutes into the perfusion period.
Glucose oxidation rates are determined by the quantitative collection of ^14CO2 produced by hearts perfused with buffer containing […]. Rates of fatty acid oxidation are determined by the quantitative collection of ^14CO2 produced by hearts perfused with buffer containing [^14C]palmitate (McNeill, J. H. in “Measurement of cardiovascular function”, chapter 2, CRC press, New York (1997)).
Active compounds are characterized by an increase in glucose oxidation as compared to control experiment (DMSO). The compounds that caused statistically significant increases in glucose oxidation are considered to be active. The preferred compounds cause statistically significant increases in glucose oxidation at 20 μM. Statistical significance was calculated using the Student's t test for paired or unpaired samples, as appropriate. The results with P<0.05 are considered to be statistically significant.

With `CC(C)CN(C(=O)Nc1ccc(C(F)(F)F)cc1)c1ccc2nc(S)sc2c1` [Table 3; entry 1, N-(2-mercapto-1,3-benzothiazol-6-yl)-N-(2-methylpropyl)-N′-[4-(trifluoromethyl)phenyl]urea] as the compound, how does the IC50 [1] read?
The IC50 was 31 nM.

With `CC(C)CN(C(=O)Nc1ccc(C#N)cc1)c1ccc2nc(S)sc2c1` [Table 3; entry 3] as the compound, how does the IC50 [1] read?
The IC50 was 93 nM.

For `CC(C)N(C(=O)Nc1ccc(C(F)(F)F)cc1)c1ccc2nc(S)sc2c1` [Table 3; entry 16], which IC50 [1] is on record?
The IC50 was 23 nM.

What about the “effects in metabolism shift compared with known metabolism modulators” value [2] of the same compound?
Its value is “more profound effects in metabolism shift than the known metabolism modulators such as ranolazine or trimetazidine”.

Which IC50 [1] does the source give for `CC(C)N(C(=O)Nc1ccc(CC(=O)O)cc1)c1ccc2nc(S)sc2c1` [Table 3; entry 17] here?
Its IC50 is 42 nM.

With `CC(C)N(C(=O)Oc1ccc(Cl)cc1)c1ccc2nc(S)sc2c1` [Table 4; entry 4] as the compound, how does the IC50 [1] read?
The IC50 was 75 nM.

Which IC50 [1] does the source give for `CC(C)N(C(=O)OCCOCc1ccccc1)c1ccc2nc(S)sc2c1` [Table 4; entry 6] here?
The IC50 was 1600 nM.

Which melting point does the source give for `O=C1CNC(=S)N1c1ccc2nc(S)sc2c1` [Table 5; entry 1, 3-(2-mercapto-1,3-benzothiazol-6-yl)-2-thioxoimidazolidin-4-one] here?
Its melting point is > 266 °C.

With `CCCCOc1ccc(NC(=O)N(CC)c2ccc3nc(S)sc3n2)cc1` [Table 7; entry 1, 3-(4-butoxy-phenyl)-1-ethyl-1-(2-mercapto-thiazolo[5,4-b]pyridin-5-yl)-urea] as the compound, how does the melting point read?
Its melting point is 134.3 to 135 °C.

What about the IC50 [1] of the same compound?
The IC50 was 62 nM.

With `CC(C)N(C(=O)Nc1ccc(C(F)(F)F)cc1)c1ccc2nc(S)sc2n1` [Table 7; entry 8] as the compound, how does the IC50 [1] read?
Its IC50 is 52 nM.

For `CCN(C(=O)COc1ccccc1)c1ccc2nc(S)sc2n1` [Table 8; entry 1, N-ethyl-N-(2-mercapto-thiazolo[5,4-b]pyridin-5-yl)-2-phenoxy-acetamide], which melting point is on record?
The melting point was 107.5 to 109 °C.

And the IC50 [1]?
Its IC50 is 98 nM.

For `CC(C)N(C(=O)c1ccc(C(F)(F)F)cc1)c1ccc2nc(S)sc2n1` [Table 8; entry 7], which IC50 [1] is on record?
Its IC50 is 25 nM.

And the “effects in metabolism shift compared with known metabolism modulators” value [2]?
The value was “more profound effects in metabolism shift than the known metabolism modulators such as ranolazine or trimetazidine”.

From patent US8110686B2 (Chugai Seiyaki Kabushiki Kaisha, priority 2001, dated 2012)
